US20180028436A1, “TOPICAL FORMULATION OF HOPS EXTRACT” (priority 2016, published 2018)

System: fibroblast cells of L929 cell line
Assay: MTT cytotoxicity assay on fibroblast cells
Type: cell-based
Text: In this example, biocompatibility and toxicity of the topical formulation were studied. At first, cytotoxicity of the hops extract, hops nanoparticles (which were produced according to EXAMPLE 1), and β-cyclodextrin as the carrier were investigated as follows. The cultured fibroblast cells of L929 cell line were exposed to the hops extract, hops nanoparticles, and β-cyclodextrin in three test groups with different concentrations. Three test groups and the control group were studied in a 3-(4,5-dimethylthiazol-2-yl)-2,5-diphenyltetra-zolium bromide (MTT) assay using dimethyl thiazolyl diphenyl tetrazolium salt for evaluating the cell toxicity. FIG. 6A illustrates a MTT plot of the fibroblast cells after about 24 hours of exposing to the hops nanoparticles. Higher absorbance of the MTT dye indicates higher cellular proliferation.

OC[C@H]1O[C@@H]2O[C@H]3[C@H](O)[C@@H](O)[C@@H](O[C@H]4[C@H](O)[C@@H](O)[C@@H](O[C@H]5[C@H](O)[C@@H](O)[C@@H](O[C@H]6[C@H](O)[C@@H](O)[C@@H](O[C@H]7[C@H](O)[C@@H](O)[C@@H](O[C@H]8[C@H](O)[C@@H](O)[C@@H](O[C@H]1[C@H](O)[C@H]2O)O[C@@H]8CO)O[C@@H]7CO)O[C@@H]6CO)O[C@@H]5CO)O[C@@H]4CO)O[C@@H]3CO [β-cyclodextrin]
IC50 Value 24 hours (L929 fibroblast cells, MTT, 24 hours): >6000 µg/mL
IC50 Value 72 hours (L929 fibroblast cells, MTT, 72 hours): >6000 µg/mL
cytotoxicity effect (conclusion from IC50 values of TABLE 3): no cytotoxicity effect
